Values after ≈ are worked out from the molar mass of the structure shown.

This passage reports MIC results from ChEMBL document CHEMBL5506059, “Cyanomethylquinolones as a New Class of Potential Multitargeting Broad-Spectrum Antibacterial Agents” (J Med Chem, 2024).

What all share (type): functional
The test system of assay [1] is Staphylococcus aureus. Description: Antibacterial activity against methicillin resistant Staphylococcus aureus clinical isolate assessed as inhibition of bacterial growth incubated for 24 hrs.
Assay [2] has as its system Staphylococcus aureus. Description: Antibacterial activity against Staphylococcus aureus clinical isolate assessed as inhibition of bacterial growth incubated for 24 hrs.
Assay [3] has as its system Staphylococcus aureus. Description: Antibacterial activity against Staphylococcus aureus ATCC 25923 assessed as inhibition of bacterial growth incubated for 24 hrs.
For assay [4], the system named is Staphylococcus aureus. Description: Antibacterial activity against Staphylococcus aureus ATCC 29213 assessed as inhibition of bacterial growth incubated for 24 hrs.
Another assay deals with Enterococcus faecalis. Description: Antibacterial activity against Enterococcus faecalis clinical isolate assessed as inhibition of bacterial growth incubated for 24 hrs.
The next assay relates to Klebsiella pneumoniae. Description: Antibacterial activity against Klebsiella pneumoniae clinical isolate assessed as inhibition of bacterial growth incubated for 24 hrs.
Assay [5] concerns Escherichia coli. Description: Antibacterial activity against Escherichia coli clinical isolate assessed as inhibition of bacterial growth incubated for 24 hrs.
In assay [6] the test system is Escherichia coli. Description: Antibacterial activity against Escherichia coli ATCC 25922 assessed as inhibition of bacterial growth incubated for 24 hrs.
For assay [7], the system named is Pseudomonas aeruginosa. Description: Antibacterial activity against Pseudomonas aeruginosa clinical isolate assessed as inhibition of bacterial growth incubated for 24 hrs.
In assay [8] the test system is Pseudomonas aeruginosa. Description: Antibacterial activity against Pseudomonas aeruginosa ATCC 27853 assessed as inhibition of bacterial growth incubated for 24 hrs.
A further assay has as its system Acinetobacter baumannii. Description: Antibacterial activity against Acinetobacter baumannii clinical isolate assessed as inhibition of bacterial growth incubated for 24 hrs.

For `O=C(O)Cc1cc2c(cc1F)c(=O)c(C(=O)O)cn2Cc1ccccc1Cl`, the minimum inhibitory concentration (MIC) (commonly the lowest concentration found to suppress growth) stood at 32 µg/mL (≈ 82.1 µM) in the assay on Staphylococcus aureus [1]; 32 µg/mL (≈ 82.1 µM) in the assay with Staphylococcus aureus [2]; 16 µg/mL (≈ 41.1 µM) in the assay on Staphylococcus aureus [3]; 8 µg/mL (≈ 20.5 µM) with Staphylococcus aureus [4]; 32 µg/mL (≈ 82.1 µM) in the assay on Enterococcus faecalis; 0.5 µg/mL (≈ 1.28 µM) in the assay with Klebsiella pneumoniae. Also, the minimum inhibitory concentration (MIC) with Escherichia coli [5] stood at 32 µg/mL (≈ 82.1 µM); in the assay on Escherichia coli [6], 8 µg/mL (≈ 20.5 µM); in the assay on Pseudomonas aeruginosa [7], 64 µg/mL (≈ 164 µM); in the assay with Pseudomonas aeruginosa [8], 4 µg/mL (≈ 10.3 µM); in the assay with Acinetobacter baumannii, 32 µg/mL (≈ 82.1 µM).
Take `N#CCc1cc2c(cc1F)c(=O)c(C(=O)O)cn2Cc1cnc(Cl)s1`: the minimal inhibitory concentration (MIC) in the assay on Staphylococcus aureus [1] amounted to 1 µg/mL (≈ 2.65 µM); in the assay on Staphylococcus aureus [2], 8 µg/mL (≈ 21.2 µM); in the assay with Staphylococcus aureus [3] it was 8 µg/mL (≈ 21.2 µM); in the assay on Staphylococcus aureus [4], 4 µg/mL (≈ 10.6 µM); with Enterococcus faecalis, 16 µg/mL (≈ 42.4 µM); with Klebsiella pneumoniae, 8 µg/mL (≈ 21.2 µM). Besides, the MIC was 8 µg/mL (≈ 21.2 µM) in the assay with Escherichia coli [5]; 1 µg/mL (≈ 2.65 µM) with Escherichia coli [6]; 0.5 µg/mL (≈ 1.32 µM) in the assay on Pseudomonas aeruginosa [7]; 2 µg/mL (≈ 5.29 µM) in the assay on Pseudomonas aeruginosa [8]; 16 µg/mL (≈ 42.4 µM) with Acinetobacter baumannii.
In the case of `O=C(O)Cc1cc2c(cc1F)c(=O)c(C(=O)O)cn2Cc1ccccn1`, the MIC in the assay with Staphylococcus aureus [1] is 128 µg/mL (≈ 359 µM); with Staphylococcus aureus [2], 64 µg/mL (≈ 180 µM); in the assay with Staphylococcus aureus [3], 16 µg/mL (≈ 44.9 µM); with Staphylococcus aureus [4], 64 µg/mL (≈ 180 µM); with Enterococcus faecalis it was 16 µg/mL (≈ 44.9 µM); with Klebsiella pneumoniae, 8 µg/mL (≈ 22.5 µM). The MIC with Escherichia coli [5] came to 128 µg/mL (≈ 359 µM); with Escherichia coli [6], 32 µg/mL (≈ 89.8 µM); in the assay on Pseudomonas aeruginosa [7] it was 64 µg/mL (≈ 180 µM); in the assay on Pseudomonas aeruginosa [8] it was 8 µg/mL (≈ 22.5 µM); with Acinetobacter baumannii, 64 µg/mL (≈ 180 µM).
For `C=CCn1cc(C(=O)O)c(=O)c2cc(F)c(CC#N)cc21`, the MIC in the assay with Staphylococcus aureus [1] worked out at 0.5 µg/mL (≈ 1.75 µM); in the assay on Staphylococcus aureus [2], 2 µg/mL (≈ 6.99 µM); in the assay on Staphylococcus aureus [3], 0.5 µg/mL (≈ 1.75 µM); in the assay on Staphylococcus aureus [4], 4 µg/mL (≈ 14 µM); in the assay on Enterococcus faecalis it was 16 µg/mL (≈ 55.9 µM); in the assay on Klebsiella pneumoniae it was 1 µg/mL (≈ 3.49 µM). Further, the MIC with Escherichia coli [5] is 256 µg/mL (≈ 894 µM); in the assay on Escherichia coli [6], 0.5 µg/mL (≈ 1.75 µM); with Pseudomonas aeruginosa [7], 0.5 µg/mL (≈ 1.75 µM); in the assay with Pseudomonas aeruginosa [8], 4 µg/mL (≈ 14 µM); in the assay on Acinetobacter baumannii, 8 µg/mL (≈ 27.9 µM).
Consider `CCn1cc(C(=O)O)c(=O)c2cc(F)c(CC#N)c(F)c21`, for which the MIC in the assay on Staphylococcus aureus [1] was found to be 1 µg/mL (≈ 3.42 µM); in the assay on Staphylococcus aureus [2], 0.25 µg/mL (≈ 0.855 µM); in the assay on Staphylococcus aureus [3] it was 16 µg/mL (≈ 54.7 µM); in the assay on Staphylococcus aureus [4], 1 µg/mL (≈ 3.42 µM); in the assay on Enterococcus faecalis, 8 µg/mL (≈ 27.4 µM); with Klebsiella pneumoniae it was 16 µg/mL (≈ 54.7 µM). Further, the MIC with Escherichia coli [5] came out at 4 µg/mL (≈ 13.7 µM); in the assay with Escherichia coli [6], 0.5 µg/mL (≈ 1.71 µM); in the assay with Pseudomonas aeruginosa [7], 1 µg/mL (≈ 3.42 µM); in the assay with Pseudomonas aeruginosa [8], 4 µg/mL (≈ 13.7 µM); in the assay with Acinetobacter baumannii it was 0.5 µg/mL (≈ 1.71 µM).
As for `N#CCc1cc2c(cc1F)c(=O)c(C(=O)O)cn2Cc1ccc(Cl)c(Cl)c1`, the MIC is 256 µg/mL (≈ 632 µM) with Staphylococcus aureus [1]; 256 µg/mL (≈ 632 µM) with Staphylococcus aureus [2]; 0.25 µg/mL (≈ 0.617 µM) with Staphylococcus aureus [3]; 2 µg/mL (≈ 4.94 µM) with Staphylococcus aureus [4]; 256 µg/mL (≈ 632 µM) in the assay with Enterococcus faecalis; 16 µg/mL (≈ 39.5 µM) with Klebsiella pneumoniae. The MIC in the assay on Escherichia coli [5] was 8 µg/mL (≈ 19.7 µM); in the assay on Escherichia coli [6], 2 µg/mL (≈ 4.94 µM); with Pseudomonas aeruginosa [7] it was 0.5 µg/mL (≈ 1.23 µM); in the assay with Pseudomonas aeruginosa [8], 2 µg/mL (≈ 4.94 µM); with Acinetobacter baumannii, 0.5 µg/mL (≈ 1.23 µM).
As for `N#CCc1cc2c(cc1F)c(=O)c(C(=O)O)cn2Cc1ccccn1`, the MIC worked out at 32 µg/mL (≈ 94.9 µM) in the assay on Staphylococcus aureus [1]; 256 µg/mL (≈ 759 µM) in the assay on Staphylococcus aureus [2]; 1 µg/mL (≈ 2.96 µM) in the assay on Staphylococcus aureus [3]; 8 µg/mL (≈ 23.7 µM) in the assay on Staphylococcus aureus [4]; 8 µg/mL (≈ 23.7 µM) in the assay with Enterococcus faecalis; 4 µg/mL (≈ 11.9 µM) in the assay on Klebsiella pneumoniae. Further, the MIC stood at 8 µg/mL (≈ 23.7 µM) with Escherichia coli [5]; 0.25 µg/mL (≈ 0.741 µM) with Escherichia coli [6]; 0.5 µg/mL (≈ 1.48 µM) in the assay with Pseudomonas aeruginosa [7]; 16 µg/mL (≈ 47.4 µM) in the assay on Pseudomonas aeruginosa [8]; 2 µg/mL (≈ 5.93 µM) in the assay on Acinetobacter baumannii.
Turning to `N#CCc1cc2c(cc1F)c(=O)c(C(=O)O)cn2Cc1ccccc1`, the MIC with Staphylococcus aureus [1] was determined as 8 µg/mL (≈ 23.8 µM); in the assay on Staphylococcus aureus [2] it was 256 µg/mL (≈ 761 µM); in the assay with Staphylococcus aureus [3] it was 0.25 µg/mL (≈ 0.743 µM); in the assay with Staphylococcus aureus [4] it was 0.5 µg/mL (≈ 1.49 µM); with Enterococcus faecalis, 4 µg/mL (≈ 11.9 µM); with Klebsiella pneumoniae, 0.5 µg/mL (≈ 1.49 µM). In addition, the MIC was found to be 2 µg/mL (≈ 5.95 µM) with Escherichia coli [5]; 0.25 µg/mL (≈ 0.743 µM) in the assay on Escherichia coli [6]; 0.25 µg/mL (≈ 0.743 µM) in the assay on Pseudomonas aeruginosa [7]; 1 µg/mL (≈ 2.97 µM) in the assay with Pseudomonas aeruginosa [8]; 256 µg/mL (≈ 761 µM) in the assay with Acinetobacter baumannii.
As for `CCCCCCn1cc(C(=O)O)c(=O)c2cc(F)c(CC#N)cc21`, the MIC in the assay with Staphylococcus aureus [1] came to 256 µg/mL (≈ 775 µM); in the assay on Staphylococcus aureus [2], 256 µg/mL (≈ 775 µM); in the assay with Staphylococcus aureus [3], 0.25 µg/mL (≈ 0.757 µM); in the assay with Staphylococcus aureus [4], 256 µg/mL (≈ 775 µM); in the assay on Enterococcus faecalis it was 256 µg/mL (≈ 775 µM); in the assay with Klebsiella pneumoniae, 8 µg/mL (≈ 24.2 µM). The minimum inhibitory concentration (MIC) worked out at 4 µg/mL (≈ 12.1 µM) in the assay with Escherichia coli [5]; 0.5 µg/mL (≈ 1.51 µM) in the assay on Escherichia coli [6]; 2 µg/mL (≈ 6.05 µM) in the assay on Pseudomonas aeruginosa [7]; 256 µg/mL (≈ 775 µM) in the assay with Pseudomonas aeruginosa [8]; 256 µg/mL (≈ 775 µM) with Acinetobacter baumannii.
With `CCCCn1cc(C(=O)O)c(=O)c2cc(F)c(CC#N)cc21`, the MIC was 0.5 µg/mL (≈ 1.65 µM) in the assay on Staphylococcus aureus [1]; 8 µg/mL (≈ 26.5 µM) in the assay with Staphylococcus aureus [2]; 0.25 µg/mL (≈ 0.827 µM) in the assay on Staphylococcus aureus [3]; 8 µg/mL (≈ 26.5 µM) with Staphylococcus aureus [4]; 64 µg/mL (≈ 212 µM) in the assay on Enterococcus faecalis; 1 µg/mL (≈ 3.31 µM) in the assay on Klebsiella pneumoniae. The MIC was 4 µg/mL (≈ 13.2 µM) in the assay on Escherichia coli [5]; 0.5 µg/mL (≈ 1.65 µM) in the assay on Escherichia coli [6]; 0.5 µg/mL (≈ 1.65 µM) with Pseudomonas aeruginosa [7]; 4 µg/mL (≈ 13.2 µM) in the assay with Pseudomonas aeruginosa [8]; 256 µg/mL (≈ 847 µM) in the assay with Acinetobacter baumannii.
